Experimental data as given in patent US11352354B2, “Substituted penta-fused hexa-heterocyclic compounds, preparation method therefor, drug combination and use thereof” (Xiamen University, priority 2017, dated 2022).
Marks after values point to notes of the source that are not given here.

Tests used:
[1] = tested on: JeKo-1 cells; assay: Tumor cell growth inhibition by MTS method, JeKo-1; type: cell-based; details: 5 days of culture; for inhibition at 10 µM: read-out: cell growth inhibition rate of compounds at 10 μM
Experimental: III. Determination of IC50 Value of Compound for Inhibiting Tumor Cell Growth by MTS Method
1. Cell plating: cells in logarithmic growth phase were counted and inoculated in a 96-well plate (20000 cells per well).
2. Administrating agent to cell: 10 mM compound mother solution in DMSO was subjected to 3 fold-gradient dilution, to set 8 concentrations, which were then added to various wells, with three replicates for each concentration, and three blank wells (only culture medium) and three negative controls (containing 0.1% DMSO) on each plate.
3. […] The OD value at 490 nm was measured with microplate reader OD490. The cell growth inhibition rate was calculated by the following formula: Cell growth inhibition rate %=1−(ODexperimental group−ODblank group)/(ODnegative group−ODblank group)×100%
The semi-inhibitory concentration IC50 of the compound acting on cell growth was calculated using GradPad Prism 5 software according to the measured cell growth inhibition rate.
In the following table it lists the IC50 value or the inhibition rates of some compounds at 10 μM against JeKo-1 cells

[2] = tested on: MDA-MB-231 cells; assay: Vacuolation of MDA-MB-231 cells caused by inhibition of compounds on PIKfyve (microscopy); type: cell-based; details: MDA-MB-231 cells
Text: I. Determination of Vacuolation of MDA-MB-231 Cells Caused by Inhibition of Compounds on PIKfyve
When the activity of pikfyve kinase is inhibited, vacuoles will be produced in cytoplasm. By observing the number of vacuoles under a microscope, the ability of compounds to inhibit the activity of pikfyve kinase can be known.
1. Cell plating: cells in logarithmic growth phase were made into a single cell suspension, counted with a cell counter and diluted to a cell concentration of about 2×10^5/mL. Then, the cells were inoculated into a 12-well plate, and cultured in a 37° C., 5% CO2 incubator.
3. Vacuolation test: after 24 and 48 hours of culture, photos were taken under an […] to observe the degree of vacuolation.
(In the table, “+” represents the degree of vacuolation; more “+” indicates more obvious vacuolation; “−” represents no vacuolation)

[3] = Homo sapiens, JeKo-1, 120 h, 10 μM

| Structure (SMILES) | inhibition at 10 µM [1, 3] | degree of vacuolation, 1 μM, 24 h [2] | degree of vacuolation, 1 μM, 48 h [2] | degree of vacuolation, 10 μM, 24 h [2] | degree of vacuolation, 10 μM, 48 h [2] | IC50 ([1]; Homo sapiens, JeKo-1, 120 h) | cell growth inhibition rate of compounds at 10 μM ([1]; 10 μM) | IC50 [1] |
| --- | --- | --- | --- | --- | --- | --- | --- | --- |
| Cc1ccc(C(=O)Nc2cccc(C(F)(F)F)c2)cc1Nc1nc(-c2cccnc2)cn2c(Br)cnc12 [VI-b-2] | 14.7% |  |  |  |  |  |  |  |
| Cc1ccc(C(=O)Nc2cccc(C(F)(F)F)c2)cc1Nc1nc(-c2cccnc2)nc2c1ccn2C [II-b-2] |  | + | + | + | + | 2850 nM |  |  |
| Cc1ccc(Nc2nc(-c3cccc(NC(=O)c4ccc(N)nc4)c3)nc3ccsc23)cn1 [VII-a-16] |  | + | + | + | + | 824 nM |  |  |
| Cc1ccc(C(=O)Nc2cccc(C(F)(F)F)c2)cc1Nc1nc(-c2cccnc2)nc2[nH]cnc12 [IV-a-3] | 16.2% |  | + |  | + |  |  |  |
| O=C(Nc1cccc(C(F)(F)F)c1)c1cccc(Nc2cc(-c3cccnc3)nc3sccc23)c1 [VIII-a-5] |  | − | + | + | + | 5140 nM |  |  |
| Cc1ccc(C(=O)Nc2cccc(C(F)(F)F)c2)cc1Nc1nc(-c2cccnc2)cn2ccnc12 [VI-a-2] |  | + | + | + | + |  | 38.6%^a |  |
| Cc1ccc(Nc2nc(-c3cccc(NC(=O)c4cccc(C(F)(F)F)c4)c3)nc3ccsc23)cn1 [VII-a-15] |  | + | + | + | + | 2670 nM |  |  |
| Cc1ccc(C(=O)Nc2cccc(C(F)(F)F)c2)cc1Nc1cc(-c2cccnc2)nc2[nH]ccc12 [I-a-20] |  | +++ | +++ | ++++ | ++++ | 2540 nM |  |  |
| Cc1ccc(C(=O)Nc2ccc(CN3CCN(C)CC3)c(C(F)(F)F)c2)cc1Nc1cc(-c2ccncc2)nc2[nH]ccc12 [I-a-25] |  | + | + | + | + | 2130 nM |  |  |
| Cc1ccc(C(=O)Nc2cccc(C(F)(F)F)c2)cc1Nc1nc(-c2cccnc2)nc2c1ncn2C [IV-b-2] |  | + | + | + | + | 7120 nM |  |  |
| Cc1ccc(NC(=O)c2cccc(C(F)(F)F)c2)cc1Nc1cc(-c2ccncc2)c2cc[nH]c2n1 [I-c-11] |  | ++ | ++ | ++ | ++ | 6130 nM |  |  |
| Cc1ccc(NC(=O)c2cccc(C(F)(F)F)c2)cc1Nc1nc(-c2cccnc2)nc2ccn(C)c12 [V-b-1] | 12.3% | ++ | ++ | ++ | ++ |  |  |  |
| Cc1ccc(NC(=O)c2cccc(C(F)(F)F)c2)cc1Nc1nc(-c2cccnc2)nc2[nH]ccc12 [II-a-1] | 17.3% |  | + |  | + |  |  |  |
| Cc1ccc(NC(=O)c2cccc(C(F)(F)F)c2)cc1Nc1nc(-c2cccnc2)cn2c(C)cnc12 [VI-b-7] | 16.5% | − | − | + | + |  |  |  |
| Cc1ccc(C(=O)Nc2cccc(C(F)(F)F)c2)cc1Nc1nc(-c2cccnc2)nc2[nH]ccc12 [II-a-2] | 43.4% | + | + | + | + |  |  |  |
| Cc1ccc(C(=O)Nc2cccc(C(F)(F)F)c2)cc1Nc1nc(-c2cccnc2)c2cnn(C)c2n1 [III-c-1] |  |  |  |  |  | 2000 nM |  |  |
| Cc1ccc(C(=O)Nc2cccc(C(F)(F)F)c2)cc1Nc1cc(-c2ccncc2)nc2sccc12 [VIII-a-8] |  | − | ++ | − | ++ | 2000 nM |  |  |
| Cn1ncc2c(NCc3cccnc3)nc(-c3cccc(NC(=S)Nc4cccc(C(F)(F)F)c4)c3)nc21 [III-b-15] | 24.1% | − | − | + | + |  |  |  |
| Cc1ccc(NC(=O)c2cccc(C(F)(F)F)c2)cc1Nc1cc(-c2cccnc2)nc2c1ccn2C [I-b-1] |  | ++ | ++ | +++ | +++ | 2770 nM |  |  |
| Cc1ccc(C(=O)Nc2cccc(C(F)(F)F)c2)cc1Nc1nc(-c2cccnc2)nc2c1cnn2C [III-b-1] |  | + | ++ | + | ++ | 939 nM |  |  |
| Cc1ccc(NC(=O)c2cccc(C(F)(F)F)c2)cc1Nc1nc(-c2cccnc2)nc2[nH]cnc12 [IV-a-1] | 18.3% | + | ++ | + | ++ |  |  |  |
| Cc1ccc(C(=O)Nc2cccc(C(F)(F)F)c2)cc1Nc1cc(-c2cccnc2)nc2c1ccn2C [I-b-4] |  | − | − |  |  |  |  | 1330 nM |
| O=C(Nc1cccc(Nc2cc(-c3ccncc3)nc3sccc23)c1)c1cccc(C(F)(F)F)c1 [VIII-a-2] |  | ++ | ++ | ++ | ++ | 3260 nM |  |  |
| Cc1ccc(NC(=O)c2cccc(C(F)(F)F)c2)cc1Nc1cc(-c2cccnc2)c2cc[nH]c2n1 [I-c-12] |  | +++ | +++ | +++ | +++ | 1100 nM |  |  |
| Cc1ccc(NC(=O)c2cccc(C(F)(F)F)c2)cc1Nc1nc(-c2cccnc2)cn2c(Br)cnc12 [VI-b-1] | 17.5% |  |  |  |  |  |  |  |
| Cc1ccc(NC(=O)c2cccc(C(F)(F)F)c2)cc1Nc1nc(-c2cccnc2)cn2ccnc12 [VI-a-5] |  | − | + | − | + |  |  |  |
| Cc1ccc(NC(=O)c2cccc(C(F)(F)F)c2)cc1Nc1nc(-c2cccnc2)cn2ccnc12 [VI-a-1] |  |  |  |  |  | 7490 nM |  |  |
| Cc1ccc(C(=O)Nc2cccc(F)c2)cc1Nc1nc(-c2cccnc2)cn2c(Br)cnc12 [VI-b-5] | 16.9% |  |  |  |  |  |  |  |
| O=C(Nc1cccc(C(F)(F)F)c1)c1ccc(F)c(Nc2cc(-c3cccnc3)nc3[nH]ccc23)c1 [I-a-38] |  | + | + | ++ | ++ |  |  |  |
